SMILES,melting point [°C],boiling point [°C],log10 vapour pressure (mmHg),ready biodegradability,log10 Henry constant (atm·m³/mol),log10 Koc (L/kg),log10 Koa
COc1cc(C=O)cc(OC)c1,46.3,–,–,–,–,–,–
OCCN1CCN(CCO)CC1,135,–,–,–,–,–,–
CCCC(=O)CC,-55.5,124,1.14,not readily biodegradable,–,–,–
CCCCCCCCSC#N,105,–,–,–,–,–,–
CN(C)S(=O)(=O)N(SC(F)(Cl)Cl)c1ccccc1,106,–,-6.95,not readily biodegradable,–,–,–
CC(C(O)c1ccccc1)N(C)C/C=C/c1ccccc1 (stereo not drawn),75,–,–,–,–,–,–
CCCC(=O)C(C)CC (stereo not drawn),–,154,–,–,–,–,–
Nc1ccc(-c2ccccc2N)cc1,54.5,363,–,–,–,–,–
Cc1ncc([N+](=O)[O-])n1CC(C)O (stereo not drawn),76,–,–,–,–,–,–
Cc1cc(C)cc(C(=O)N(NC(=O)c2ccccc2)C(C)(C)C)c1,206,–,–,–,–,–,–
CCCCCCCC(=O)CCCCCCC,43,291,-3.39,–,–,–,–
Clc1cccnc1,–,148,–,–,–,–,–
CCCCCCCCCc1cccc(O)c1CCCCCCCCC,–,–,–,not readily biodegradable,–,–,–
CC(C)C12CCC(C)(CC1)O2,1,174,0.286,–,–,–,–
COc1ccc(/C=C/c2cc(OC)cc(=O)o2)cc1,156,–,–,–,–,–,–
CCC(C)(C#N)/N=N/C(C)(C#N)CC (stereo not drawn),50,–,–,–,–,–,–
O=C(O)COc1cccc2ccccc12,196,–,–,–,–,–,–
Nc1ccc(/N=N/c2ccc(N)cc2)cc1,250,–,–,–,–,–,–
COC(=O)CC(=O)OC,-61.9,181,-0.0458,–,–,–,–
CCN(CC)CCOC(=O)C1(C2CCCCC2)CCCCC1.Cl,165,–,–,–,–,–,–
Cc1csc(C)n1,–,146,0.706,–,–,–,–
C1=NNCC1,–,144,–,–,–,–,–
CC[C@@H]1C(=O)OC[C@@H]1Cc1cncn1C,34,–,–,–,–,–,–
CCc1nc(CC)nc(NS(=O)(=O)c2ccc(N)cc2)n1,187,–,–,not readily biodegradable,–,–,–

SMILES,melting point [°C],boiling point [°C],log10 vapour pressure (mmHg),ready biodegradability,log10 Henry constant (atm·m³/mol),log10 Koc (L/kg),log10 Koa
Cc1cccc(I)c1,-27.2,213,–,–,–,–,–
CCCCC(C)(O)CC (stereo not drawn),-83,163,–,–,–,–,–
C=CCC1(C(C)CCC)C(=O)NC(=S)NC1=O (stereo not drawn),132,–,–,–,–,–,–
CCC(C)(C)OC,–,86.3,1.88,–,-2.88,–,–
CCCO[Si](OCCC)(OCCC)OCCC,–,226,–,–,–,–,–
C=CC(F)(F)F,–,-17,3.64,–,–,–,–
COC(=O)CCC(=O)O,58,–,–,–,–,–,–
C[C@]12CC[C@H](O)C[C@@H]1CC[C@@H]1[C@@H]2[C@@H](O)C[C@@]2(C)[C@H]1CC[C@]2(O)C(=O)CO,244,–,–,–,–,–,–
COC(=O)CCCCCC(=O)OC,-21,–,–,–,–,–,–
OCCCCCCO,45,250,-3.3,–,–,–,–
O=C(CCl)c1cccc([N+](=O)[O-])c1,–,–,-5.06,–,–,–,–
O=C1c2ccccc2-c2c(O)cccc21,250,–,–,–,–,–,–
CCCN(CCC)C(=O)SCC,–,–,-1.62,–,–,2.38,–
CCC(O)CN (stereo not drawn),3,169,–,–,–,–,–
OCCNCCNCCO,97.5,–,–,–,–,–,–
CC(=O)[C@H]1CC[C@H]2[C@@H]3C[C@H](C)C4=CC(=O)CC[C@]4(C)[C@H]3[C@@H](O)C[C@]12C,156,–,–,–,–,–,–
CCNc1ccc(C)cc1,–,217,–,not readily biodegradable,–,–,–
Nc1cc(Cl)c(Cl)cc1N,160,–,–,–,–,–,–
CCCCN1CCOCC1,-57.1,214,–,–,–,–,–
CCO[Si](c1ccccc1)(c1ccccc1)c1ccccc1,65,344,–,–,–,–,–
COC,-142,-24.8,3.65,not readily biodegradable,–,–,1.37
CC(=O)Oc1ccccc1C,–,208,–,–,–,–,–
C[C@]12CCC(=O)C=C1CC[C@@H]1[C@@H]2[C@@H](O)C[C@@]2(C)[C@H]1CC[C@]2(O)C(=O)CO,218,–,–,–,–,–,–
CCN,–,16.6,3.02,readily biodegradable,-4.91,–,–

SMILES,melting point [°C],boiling point [°C],log10 vapour pressure (mmHg),ready biodegradability,log10 Henry constant (atm·m³/mol),log10 Koc (L/kg),log10 Koa
CC(O)C(C)O (racemic),16.3,182,-0.677,–,–,–,–
CCC(=O)CCC(C)C,–,164,–,–,–,–,–
CCOC(=O)CC(C)=O,-45,181,-0.108,–,–,–,–
C1=CCSC1,–,122,–,–,–,–,–
CC(C)=CCC/C(C)=C/C=C/C(C)=C/C=C/C(C)=C/C=C/C=C(C)/C=C/C=C(C)/C=C/C=C(\C)CCCC(C)(C)O,171,–,–,–,–,–,–
C=CCOCC=C,-6,94,–,–,–,–,–
FC(F)(Br)C(F)(F)C(F)(F)C(F)(F)C(F)(F)C(F)(F)C(F)(F)C(F)(F)Br,–,180,–,–,–,–,–
O[C@@H](Cc1ccccc1)c1ccccc1,67,–,–,–,–,–,–
CN(C)c1ccc(N(C)C)cc1,51,260,–,–,–,–,–
Cc1c(F)c(F)cc(F)c1F,–,126,–,–,–,–,–
CC(Br)(CBr)COc1c(Br)cc(Br)cc1Br (stereo not drawn),–,–,–,not readily biodegradable,–,–,–
Cc1ccc(C)c(C=O)c1,–,220,–,–,–,–,–
OB(O)c1ccc(Cl)cc1,286,–,–,–,–,–,–
Oc1ccc2ccccc2c1-c1c(O)ccc2ccccc12,216,–,–,–,–,–,–
CC[C@]1(O)C[C@H]2C[N@](CCc3c([nH]c4ccccc34)[C@@](C(=O)OC)(c3cc4c(cc3OC)N(C)[C@H]3[C@@](O)(C(N)=O)[C@H](O)[C@]5(CC)C=CCN6CC[C@]43[C@@H]65)C2)C1,231,–,–,–,–,–,–
Clc1ccnc2ccccc12,34.5,262,–,–,–,–,–
S=C=NC1CCCCC1,–,220,–,–,–,–,–
FC(F)(F)C(F)(F)C(F)(F)C(F)(F)C(F)(F)I,-50,94.4,–,–,–,–,–
CC1=CC(=O)[C@H]2C[C@@H]1C2(C)C,–,228,–,–,–,–,–
NC(=O)COC(=O)c1ccccc1,121,–,–,–,–,–,–
Oc1ccc2c(c1)[nH]c1ccccc12,272,–,–,–,–,–,–
COc1cccc(Br)c1,–,211,–,–,–,–,–
Clc1ccc2cc(Cl)ccc2c1,140,285,–,–,–,–,–
